Laboratory results taken from PMC4863456 (Journal of Chemical Information and Modeling, 2015).

Legend:
[1] = system: CB1 W5.43 mutated to alanine; settings: W5.43 to alanine; cited from earlier work
[2] = system: CB1 M6.55A mutation; settings: M6.55 to alanine; cited from earlier work
[3] = system: CB1 K3.28 mutated to alanine; settings: K3.28 to alanine; cited from earlier work
[4] = system: CB1 M6.55A mutation; test: Published binding data, M6.55A mutation; settings: M6.55 to alanine

- decrease in binding affinity upon mutation, as energy [4]: 0.65 kcal/mol
SMILES: Cc1c(C(=O)NN2CCCCC2)nn(-c2ccc(Cl)cc2Cl)c1-c1ccc(Cl)cc1 [rimonabant, N-(Piperidin-1-yl)-5-(4-Chlorophenyl)-1-(2,4-Dichlorophenyl)-4-Methyl-1H -Pyrazole-3-Carboxamide]
- decrease in experimental binding affinity upon mutation [1]: > 1000 fold
- decrease in binding affinity upon mutation [2]: 3 fold
- decrease in experimental binding affinity upon mutation [3]: 17.2 fold
